Values quoted from earlier work as cited in US20060234982A1 (priority 2003, published 2006).

Experiments:
HIV-1 = conditions: in vitro, with recombinant soluble CD4, castanospermine or recombinant interferon-α
HBV = conditions: variety of cell types
[1] = not given; remark: listed apart in the source
[2] = relative to tenofovir, HIV in culture

Cc1cn([C@H]2C[C@H](N=[N+]=[N-])[C@@H](CO)O2)c(=O)[nH]c1=O [AZT, 3′-azido, 3′-deoxythymidine]
antiviral activity in combination (HIV-1): synergistic antiviral activity

CC(C)OC(=O)[C@H](C)N[P@](=O)(CO[C@H](C)Cn1cnc2c(N)ncnc21)Oc1ccccc1 [GS-7340, 9-[(R)-2-[[(S)-[[(S)-1-(isopropoxycarbonyl)ethyl]amino]phenoxyphosphinyl]methoxy]propyl]adenine]
fold more effective than tenofovir against HIV in culture (HIV; [2]): 100 fold | times more effective than tenofovir against HIV in culture (HIV; [2]): 1000 times | S-configuration (at phosphorus) diastereomer more effective than R-configuration diastereomer (HIV; relative to the diastereomer with R-configuration at P): 10 fold | effectiveness against HIV in vitro (HIV; variety of cell types): effective | effectiveness against HBV in vitro (HBV): effective | hydrolysis in lymphatic tissue (dogs and rhesus monkeys): selectively hydrolyzed inside lymphatic tissue | plasma stability (dogs and rhesus monkeys): stable in plasma | oral bioavailability (dogs and rhesus monkeys, oral): 20% | tissue distribution (in vivo and in vitro characterization, selective intracellular activation): preferential distribution in lymphatic tissues

C[C@H](Cn1cnc2c(N)ncnc21)OCP(=O)(O)O [Tenofovir, (R)-9-(2-phosphonylmethoxypropyl)adenine]
pKa [1]: 3.8
